# Patent publication EP0312245A2, “Polycyclic compounds and pharmaceutical compositions thereof” (NORISTAN HOLDINGS LIMITED, priority 1987, dated 1989)
# Test system: guinea-pig papillary muscle
# Assay: Electrophysiological test: action potential of guinea-pig papillary muscle (microelectrode technique)
# Settings: Table 3; at the listed bath concentration
# Procedure: Electrophysiological studies were conducted on guinea-pig papillary muscle.
# Using a microelectrode technique, action potentials were measured from guinea-pig papillary muscles. Action potentials were evoked by electrical stimulation (platinum electrode, Grass S88 stimulator, 1 Hz stimulation frequency; voltage, 10% above threshold). […] The preparations were electrically driven (pacing intervals 1 s, duration 2-5 ms). Slow (Ca2+ mediated) action potentials were evoked in a depolarizing solution (22 mmol/l K and 5 mmol/I Ca^2+) at 0,35 Hz stimulation frequency in order to ensure complete removal of inactivation of slow inward current.
Compound,TIME 1 (Shortest time needed to attain suppression) [min],TIME 2 (Shortest time needed for reversal of effect by washing out of compound) [min]
"1(or7)-Methyl-8-benzylamino-8,11-oxopentacyclo [5.4.0.0^2,6.0^3,10.0^5,9 ]undecane [Compound 10]",20,10
"1(or7)-Methyl-8-η-butylamino-8,11-oxopentacyclo[5.4.0.0^2,6.0^3,10.0^5,9]undecane [Compound 8]",22,6
"1(or 7)-Methyl-8-methylamino-8,11-oxopentacyclo[5.4.0.0^2,6.0^3,10.0^5,9] undecane [Compound 7]",12,

# Same assay, conditions: Table 3; suppression of action potential at the listed bath concentration
row,Compound,DEGREE OF SUPPRESSION
1,"1(or7)-Methyl-8-benzylamino-8,11-oxopentacyclo [5.4.0.0^2,6.0^3,10.0^5,9 ]undecane [Compound 10]",complete
2,"1(or7)-Methyl-8-η-butylamino-8,11-oxopentacyclo[5.4.0.0^2,6.0^3,10.0^5,9]undecane [Compound 8]",complete
3,"1(or 7)-Methyl-8-methylamino-8,11-oxopentacyclo[5.4.0.0^2,6.0^3,10.0^5,9] undecane [Compound 7]",very little

# Same assay, conditions: Table 4; at the listed bath concentration
Compound,TIME 1 (Shortest time needed to attain suppression) [min],TIME 2 (Shortest time needed for reversal of effect by washing out of compound) [min]
"CCCCNC12OC3C4C5CC(C6C5C3C61)C42 (single isomer, unassigned) [(+) -2, 8-η -butylamino-8,11-oxopentacyclo [5.4.0.0^2,6.0^3,10.0^5,9] undecane]",25,
"CCCCCCCCNC12OC3C4C5CC(C6C5C3C61)C42 (single isomer, unassigned) [(+) -3, 8-η -octylamino-8,11-oxopentacyclo [5.4.0.0^2,6.0^3,10.0^5,9]undecane]",30,11
"c1ccc(CNC23OC4C5C6CC(C7C6C4C72)C53)cc1 (single isomer, unassigned) [(+) -4, 8-benzylamino-8,11-oxopentacyclo [5.4.0.0^2,6.0^3,10.0^5,9]undecane]",20,15
"CCCCCCCCNC12OC3C4C5CC(C6C5C3C61)C42 (single isomer, unassigned) [(-) -3, 8-η -octylamino-8,11-oxopentacyclo [5.4.0.0^2,6.0^3,10.0^5,9]undecane]",10,7

# Same assay, conditions: Table 4; suppression of action potential at the listed bath concentration
row,Compound,DEGREE OF SUPPRESSION
1,"CCCCNC12OC3C4C5CC(C6C5C3C61)C42 (single isomer, unassigned) [(+) -2, 8-η -butylamino-8,11-oxopentacyclo [5.4.0.0^2,6.0^3,10.0^5,9] undecane]",very little
2,"CCCCCCCCNC12OC3C4C5CC(C6C5C3C61)C42 (single isomer, unassigned) [(+) -3, 8-η -octylamino-8,11-oxopentacyclo [5.4.0.0^2,6.0^3,10.0^5,9]undecane]",incomplete
3,"c1ccc(CNC23OC4C5C6CC(C7C6C4C72)C53)cc1 (single isomer, unassigned) [(+) -4, 8-benzylamino-8,11-oxopentacyclo [5.4.0.0^2,6.0^3,10.0^5,9]undecane]",complete
4,"CCCCCCCCNC12OC3C4C5CC(C6C5C3C61)C42 (single isomer, unassigned) [(-) -3, 8-η -octylamino-8,11-oxopentacyclo [5.4.0.0^2,6.0^3,10.0^5,9]undecane]",complete

# Test system: isolated rabbit ear preparation
# Assay: Rabbit ear perfusion test (adrenaline-induced tone, perfusion pressure)
# Settings: Oryctolagus cuniculus, Table 5; dose 100 µg; read-out: Mean % change in perfusion pressure
# Procedure: Female New Zealand White rabbits (approximately 4kg) were anaesthetised with Sagatal ® (0.5ml/kg).
# The central ear artery was cannulated using a 20 G catheter and the ear cut off at its base. Heparinised (5ml, 200 IU;ml) Krebs bicarbonate solution was perfused through the ear to expel the blood. The ear was placed in a warming jacket at 37°C and attached via the arterial catheter to the perfusion pump. Perfusion of the ear with aerated (95% 025% C02)Krebs bicarbonate solution at 37° C was commenced at a rate of 6.5ml/min using a Watson Marlow peristaltic pump. The perfusion pressure was monitored continuously using a pressure transducer (Type 4-327-1221, Consoliated Electrodynamics) coupled to a Devices Recorder.
# Following an equilibration period of 15 minutes, increased tone was induced in the preparation by addition of adrenaline (1µg/ml) to the perfusion fluid.
# After a stable tone was observed, various concentrations of test compounds were injected into the perfusion fluid and examined for their effect on the perfusion pressure. The effect of vehicle (0.2ml, 50% Krebs 50% ethanol) was also tested on the ear preparation.
row,Compound,inhibition at 0.1 mg [%]
1,"CCNC12OC3C4C5CC(C6C5C3C61)C42 (racemic) [Compound 13, 8-Ethylamino-8,11-oxopentacyclo [5.4.0.0^2,6.0^3,10.0^5,9]undecane]",6
2,"CC(C)CNC12OC3C4C5CC(C6C5C3C61)C42 (racemic) [Compound 15, 8-Isobutylamino-8,11-oxopentacyclo [5.4.0.0^2,60^3,10.0^5,9]-undecane]",6.5

# Same assay, conditions: Oryctolagus cuniculus, Table 5; dose 316 µg; read-out: Mean % change in perfusion pressure
row,Compound,inhibition at 0.316 mg [%]
1,"CCNC12OC3C4C5CC(C6C5C3C61)C42 (racemic) [Compound 13, 8-Ethylamino-8,11-oxopentacyclo [5.4.0.0^2,6.0^3,10.0^5,9]undecane]",7
2,"CC(C)CNC12OC3C4C5CC(C6C5C3C61)C42 (racemic) [Compound 15, 8-Isobutylamino-8,11-oxopentacyclo [5.4.0.0^2,60^3,10.0^5,9]-undecane]",8.5

# Same assay, conditions: Oryctolagus cuniculus, Table 5; dose 1000 µg; read-out: Mean % change in perfusion pressure
row,Compound,inhibition at 1 mg [%]
1,"CCNC12OC3C4C5CC(C6C5C3C61)C42 (racemic) [Compound 13, 8-Ethylamino-8,11-oxopentacyclo [5.4.0.0^2,6.0^3,10.0^5,9]undecane]",5.5
2,"CC(C)CNC12OC3C4C5CC(C6C5C3C61)C42 (racemic) [Compound 15, 8-Isobutylamino-8,11-oxopentacyclo [5.4.0.0^2,60^3,10.0^5,9]-undecane]",7

# Same assay, conditions: Oryctolagus cuniculus, Table 5; dose 3160 µg; read-out: Mean % change in perfusion pressure
row,Compound,inhibition at 3.16 mg [%]
1,"CCNC12OC3C4C5CC(C6C5C3C61)C42 (racemic) [Compound 13, 8-Ethylamino-8,11-oxopentacyclo [5.4.0.0^2,6.0^3,10.0^5,9]undecane]",11.5
2,"CC(C)CNC12OC3C4C5CC(C6C5C3C61)C42 (racemic) [Compound 15, 8-Isobutylamino-8,11-oxopentacyclo [5.4.0.0^2,60^3,10.0^5,9]-undecane]",21

# Same assay, conditions: Oryctolagus cuniculus, Table 7; dose 31.6 μg; read-out: Mean % change in perfusion pressure
row,Compound,inhibition at 0.0316 mg [%]
1,"CCCCCCCCCCCCNC12OC3C4C5CC(C6C5C3C61)C42 (racemic) [Compound 14, 8-η -Dodecylamino-8,11-oxopentacyclo [5.4.0.0^2,6.0^3,10.0^5,9]undecane]",6.1

# Same assay, conditions: Oryctolagus cuniculus, Table 7; dose 100 μg; read-out: Mean % change in perfusion pressure
row,Compound,inhibition at 0.1 mg [%]
1,"CCCCCCCCCCCCNC12OC3C4C5CC(C6C5C3C61)C42 (racemic) [Compound 14, 8-η -Dodecylamino-8,11-oxopentacyclo [5.4.0.0^2,6.0^3,10.0^5,9]undecane]",12.4

# Same assay, conditions: Oryctolagus cuniculus, Table 7; dose 316 μg; read-out: Mean % change in perfusion pressure
row,Compound,inhibition at 0.316 mg [%]
1,"CCCCCCCCCCCCNC12OC3C4C5CC(C6C5C3C61)C42 (racemic) [Compound 14, 8-η -Dodecylamino-8,11-oxopentacyclo [5.4.0.0^2,6.0^3,10.0^5,9]undecane]",8.7

# Same assay, conditions: Oryctolagus cuniculus, Table 7; dose 1000 μg; read-out: Mean % change in perfusion pressure
row,Compound,inhibition at 1 mg [%]
1,"CCCCCCCCCCCCNC12OC3C4C5CC(C6C5C3C61)C42 (racemic) [Compound 14, 8-η -Dodecylamino-8,11-oxopentacyclo [5.4.0.0^2,6.0^3,10.0^5,9]undecane]",6.6

# Same assay, conditions: Oryctolagus cuniculus, Table 7; dose 3160 μg; read-out: Mean % change in perfusion pressure
row,Compound,inhibition at 3.16 mg [%]
1,"CCCCCCCCCCCCNC12OC3C4C5CC(C6C5C3C61)C42 (racemic) [Compound 14, 8-η -Dodecylamino-8,11-oxopentacyclo [5.4.0.0^2,6.0^3,10.0^5,9]undecane]",7.7

# Same assay, conditions: Table 5; dose 3160 µg
row,Compound,Mean time taken to return to pre-dose volume [min]
1,"CCNC12OC3C4C5CC(C6C5C3C61)C42 (racemic) [Compound 13, 8-Ethylamino-8,11-oxopentacyclo [5.4.0.0^2,6.0^3,10.0^5,9]undecane]",2.0
2,"CC(C)CNC12OC3C4C5CC(C6C5C3C61)C42 (racemic) [Compound 15, 8-Isobutylamino-8,11-oxopentacyclo [5.4.0.0^2,60^3,10.0^5,9]-undecane]",2.5
